Assay results reported in patent publication US12458643B2, “Antidepressant/anxiolytic drug in which PAC1 receptor antagonist is used” (KAGOSHIMA UNIVERSITY, priority 2020, dated 2025).

Key:
[1] = system: chronic social defeat stress mice; assay: Chronic social defeat stress, sucrose preference test; format: in vivo, mouse; conditions: for sustained effect on reduced sucrose preference: 8, 15, 29, 57 days after single i.p. dose (PA-915 30 mg/kg, ketamine 20 mg/kg), fluoxetine: after withdrawal of 14-day administration
Method: In a sucrose preference test, mice are exposed to a sucrose solution and regular water contained in bottles at the same time. Normal mice prefer to drink the sweet sucrose solution, whereas depressed mice drink the sucrose solution at a decreased ratio.
(§1) Chronic social defeat stress was applied at 10 min/day for 10 days (Days 1 to 10) to male C57BL/6N mice (8 to 12 weeks old) each reared in isolation for 10 days or longer. On Day 11, SPAT was conducted, and susceptible mice were selected. A vehicle (10% DMSO solution; dissolved in saline; n=11) or PA-8 (30 mg/kg; n=9) was intraperitoneally administered once daily (0.1 mL/10 g) for 7 consecutive days from day 12. The sucrose preference test was conducted (a sucrose preference ratio was studied for 17 hours) 30 minutes after the final administration on the 7th day (Day 18). Mice reared for 10 days in a home cage without chronic social defeat stress load were used as a control (n=10). The data was indicated by mean±standard error. *P<0.05 (One-way ANOVA followed by Tukey-Kramer test).
as §1, with “PA-9” for “PA-8”, “n=9 or 8)” for “n=9)”, “after administration on” for “after”, “first day (Day 12) and” for “final administration”, “18). […]” for “18).”
Chronic social defeat stress was applied at 10 min/day for 10 days (Days 1 to 10) to male C57BL/6N mice (8 to 12 weeks old) each reared in isolation for 10 days or longer. On Day 11, SPAT was conducted, and susceptible mice were selected. On the next day (Day 12), a vehicle (10% DMSO solution; dissolved in saline; n=11) or PA-915 (30 mg/kg; n=10) was intraperitoneally administered (0.1 mL/10 g) to the mice. The sucrose preference test was conducted (a sucrose preference ratio was studied for 17 hours) from 30 minutes after administration. Mice reared for 10 days in a home cage without chronic social defeat stress load were used as a control (n=15). The data was indicated by mean±standard error. *P<0.05 (One-way ANOVA followed by Tukey-Kramer test).
Chronic social defeat stress was applied at 10 min/day for 10 days (Days 1 to 10) to male C57BL/6N mice (8 to 12 weeks old) each reared in isolation for 10 days or longer. On Day 11, the social preference or avoidance test (SPAT) was conducted, and susceptible mice were selected. On the next day (Day 12), a vehicle (V: 10% DMSO solution; dissolved in saline; n=17), PA-915 (P: 30 mg/kg; n=15), ketamine (K: 20 mg/kg; n=15) or fluoxetine (F: 20 mg/kg; n=16, n=15 only on Day 69) was intraperitoneally administered (0.1 mL/10 g) to the mice. The sucrose preference test was conducted 24 hours later (Day 13), 8 days later (Day 20), 15 days later (Day 27), 29 days later (Day 41), and 57 days later (Day 69) (a sucrose preference ratio was studied on each day from 5:00 p.m. of the previous day to 10:00 a.m. of the day). However, for the fluoxetine administration group, consecutive administration (F: 20 mg/kg, intraperitoneal administration (0.1 mL/10 g)) was performed for 14 days from Day 12 to Day 26. Mice reared for 10 days in a home cage without chronic social defeat stress load were used as a control (n=22). The data was indicated by mean±standard error. **P<0.01; *P<0.05 (One-way ANOVA followed by Tukey-Kramer test). […]

normal mice = assay: Forced swim test in normal mice; format: in vivo, mouse; conditions: normal male C57BL/6J mice, 30 mg/kg i.p., 60 min after administration, 6 min swim
Method: The effects of PA-8 and PA-81004 on normal mice were evaluated by a forced swim test (test that exploits the switch of mice caused to swim in an inevitable environment from active escape behavior to a passive state of floating or immobility; in this test, depressive-like behavior is evaluated by placing the mice in an acrylic cylinder of 20 cm in diameter and 25 cm in height filled with water (water temperature: 25° C.) up to a depth of 15 cm, and measuring a passive floating or immobility time).
(§2) Male C57BL/6J mice (8 to 12 weeks old) were acclimatized to a laboratory (illuminance: 200 lx) for 60 minutes. Then, a vehicle (10% DMSO solution; dissolved in saline; n=9), PA-8 (30 mg/kg; n=9) or PA-81004 (30 mg/kg; n=9) was intraperitoneally administered thereto (0.1 mL/10 g). After a lapse of 60 minutes after administration, the mice were forced to swim for 6 minutes, and an immobility time was measured.
The effects of PA-9 and PA-915 on normal mice were evaluated by the forced swim test.
as §2, with “n=10), PA-9” for “n=9), PA-8”, “PA-915” for “PA-81004”

[2] = Example 19, single i.p. dose (PA-915 30 mg/kg, ketamine 20 mg/kg, fluoxetine 20 mg/kg), 24 hours later (Day 13)
[3] = chronic social defeat stress, 30 mg/kg i.p. once daily for 7 days, test 30 min after final administration (Day 18)

| SMILES | sustained effect on reduced sucrose preference ([1]; Example 19) | effect on reduced sucrose preference [1, 2] | effect on reduced sucrose preference ([1]; Example 19, fluoxetine 20 mg/kg i.p. 14-day consecutive administration (Day 12 to Day 26)) | effect on reduced sucrose preference [1, 3] | pharmacological action in forced swim test (immobility time) (normal mice) | effect on reduced sucrose preference ([1]; chronic social defeat stress, 30 mg/kg i.p. single dose (Day 12), test from 30 min after administration, 17 hours) |
| --- | --- | --- | --- | --- | --- | --- |
| CNC1(c2ccccc2Cl)CCCCC1=O (centres unmarked) [ketamine] | maintained its effectiveness 8, 15, 29, and 57 days later | improved reduced sucrose preference in a fast-acting manner |  |  |  |  |
| CNCCC(Oc1ccc(C(F)(F)F)cc1)c1ccccc1 (centres unmarked) [fluoxetine] | its effectiveness was not maintained after drug withdrawal | did not improve sucrose preference | improved reduced sucrose preference |  |  |  |
| C=CCOc1ccc(C2CC(=O)Nc3nc(N)[nH]c(=O)c32)cc1OC (centres unmarked) [PA-8] |  |  |  | improving effect | no pharmacological action |  |
| O=C(NCCc1c[nH]cn1)C1CC(=O)N(c2n[nH]c3ccccc23)C1 (centres unmarked) [PA-9] |  |  |  | its effect was also sustained after repeated administration for 7 days | no pharmacological action | improved sucrose preference even by single-dose administration |
| Nc1nc2c(c(=O)[nH]1)C(c1cccc(OC(F)(F)F)c1)CC(=O)N2 (centres unmarked) [PA-81004, 2-Amino-5-(3-trifluoromethoxyphenyl)-5,8-dihydro-3H,6H-pyrido[2,3-d]pyrimidine-4,7-dione] |  |  |  |  | no pharmacological action |  |
